Paper PMC4965148 (PLoS ONE, 2016)
“And” between values parts separate entries of the source, which are not always exact repeats. Equal entries are not always repeated. Where two headings read alike, the source gives them in different places.

Tests used:
[1] = Plasma and brain concentrations after dosing; type: in vivo, rat; settings: rat; for Kp at 30 min: brain/plasma; for Kp at 30 min / concentration at 30 min: sc; for concentration at 150 min / concentration at 30 min: plasma
Method: At specified time points after dosing, the forebrain (for occupancy), the remaining hindbrain (for brain drug exposure) and plasma were collected, frozen in chilled isopentane and stored at -80°C until assayed.
In brief, 50 μL of the plasma sample was extracted by protein precipitation with 150 μL acetonitrile containing an internal standard and 5 μL of supernatant injected into the LC-MS/MS system. Analytes were separated by reversed phase chromatography and detection of each analyte was achieved through selected reaction monitoring mode of mass spectrometry.

Rat Brain α7 nAChR = Rat Brain α7 nAChR (Rattus norvegicus, UniProt Q05941); assay: [3H]-A-585539 filtration binding
Sequence of Rat Brain α7 nAChR (Q05941 23-502): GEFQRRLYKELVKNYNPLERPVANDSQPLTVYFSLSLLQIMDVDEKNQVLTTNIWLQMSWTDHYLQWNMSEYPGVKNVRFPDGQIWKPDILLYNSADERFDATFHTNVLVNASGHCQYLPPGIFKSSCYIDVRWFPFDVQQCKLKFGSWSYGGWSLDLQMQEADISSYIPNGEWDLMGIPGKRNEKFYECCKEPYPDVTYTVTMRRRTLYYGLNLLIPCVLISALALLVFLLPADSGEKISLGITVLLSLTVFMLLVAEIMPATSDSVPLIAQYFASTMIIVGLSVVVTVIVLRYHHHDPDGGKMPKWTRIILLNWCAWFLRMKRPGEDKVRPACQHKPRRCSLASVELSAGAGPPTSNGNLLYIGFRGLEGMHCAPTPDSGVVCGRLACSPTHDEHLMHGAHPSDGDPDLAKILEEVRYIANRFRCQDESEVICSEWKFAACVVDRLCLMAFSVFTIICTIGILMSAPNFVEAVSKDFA

rat α3β4 nAChR = biological target: T1, rat α3β4 nAChR (Rattus norvegicus, UniProt P04757+P12392); assay: Ca2+ flux (FLIPR) agonist/antagonist assay; type: cell-based; settings: FLIPR antagonist mode, EC90 ACh
T1 construct: expressed in transfected cells; host or cells: HEK293 (made by Bristol-Myers Squibb)
T1 sequence (P04757 26-499): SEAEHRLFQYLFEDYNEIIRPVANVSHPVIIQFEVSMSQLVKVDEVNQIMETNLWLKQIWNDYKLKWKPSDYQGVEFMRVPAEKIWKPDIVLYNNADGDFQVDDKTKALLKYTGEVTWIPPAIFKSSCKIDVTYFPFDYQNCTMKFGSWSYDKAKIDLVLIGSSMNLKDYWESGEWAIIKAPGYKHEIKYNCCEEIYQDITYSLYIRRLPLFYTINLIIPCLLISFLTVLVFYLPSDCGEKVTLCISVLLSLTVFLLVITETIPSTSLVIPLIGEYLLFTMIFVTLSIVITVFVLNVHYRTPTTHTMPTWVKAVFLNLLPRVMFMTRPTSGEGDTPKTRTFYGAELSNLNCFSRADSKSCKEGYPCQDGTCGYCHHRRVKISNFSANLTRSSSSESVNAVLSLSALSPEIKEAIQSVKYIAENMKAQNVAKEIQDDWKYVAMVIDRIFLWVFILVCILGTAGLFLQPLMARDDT
T1 sequence (P12392 21-495): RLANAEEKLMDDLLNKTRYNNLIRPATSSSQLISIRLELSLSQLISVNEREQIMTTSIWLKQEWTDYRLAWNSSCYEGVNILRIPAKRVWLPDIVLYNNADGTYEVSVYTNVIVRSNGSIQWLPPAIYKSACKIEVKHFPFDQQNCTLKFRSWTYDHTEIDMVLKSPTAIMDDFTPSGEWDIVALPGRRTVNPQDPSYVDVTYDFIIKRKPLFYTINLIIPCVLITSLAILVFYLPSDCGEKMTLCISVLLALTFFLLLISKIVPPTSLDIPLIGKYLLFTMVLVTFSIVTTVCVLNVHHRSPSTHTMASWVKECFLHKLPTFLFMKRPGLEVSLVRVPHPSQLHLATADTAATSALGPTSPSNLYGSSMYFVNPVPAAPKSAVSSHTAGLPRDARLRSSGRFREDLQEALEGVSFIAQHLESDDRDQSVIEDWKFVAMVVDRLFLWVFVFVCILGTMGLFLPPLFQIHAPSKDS

Adrenergic α1B = Adrenergic α1B (Homo sapiens, UniProt P35368); assay: Selectivity panel, binding
Sequence of Adrenergic α1B (P35368 whole entry): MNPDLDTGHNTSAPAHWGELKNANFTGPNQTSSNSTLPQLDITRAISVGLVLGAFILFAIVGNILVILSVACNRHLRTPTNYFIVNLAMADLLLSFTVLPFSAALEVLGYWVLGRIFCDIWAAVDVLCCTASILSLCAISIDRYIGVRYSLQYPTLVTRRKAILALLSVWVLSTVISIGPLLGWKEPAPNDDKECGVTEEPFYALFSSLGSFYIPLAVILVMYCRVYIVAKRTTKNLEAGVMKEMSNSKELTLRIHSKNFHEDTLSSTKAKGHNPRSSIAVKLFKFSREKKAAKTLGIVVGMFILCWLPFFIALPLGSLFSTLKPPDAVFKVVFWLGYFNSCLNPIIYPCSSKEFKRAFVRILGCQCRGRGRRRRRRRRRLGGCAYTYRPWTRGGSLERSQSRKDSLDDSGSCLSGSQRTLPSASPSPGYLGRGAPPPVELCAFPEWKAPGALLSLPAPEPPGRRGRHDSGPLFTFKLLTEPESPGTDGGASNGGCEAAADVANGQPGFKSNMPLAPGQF

Muscarinic M3 = Muscarinic M3 (Homo sapiens, UniProt P20309); assay: Selectivity panel, binding; settings: read-out: % inhibition @ 10 µM
Sequence of Muscarinic M3 (P20309 whole entry): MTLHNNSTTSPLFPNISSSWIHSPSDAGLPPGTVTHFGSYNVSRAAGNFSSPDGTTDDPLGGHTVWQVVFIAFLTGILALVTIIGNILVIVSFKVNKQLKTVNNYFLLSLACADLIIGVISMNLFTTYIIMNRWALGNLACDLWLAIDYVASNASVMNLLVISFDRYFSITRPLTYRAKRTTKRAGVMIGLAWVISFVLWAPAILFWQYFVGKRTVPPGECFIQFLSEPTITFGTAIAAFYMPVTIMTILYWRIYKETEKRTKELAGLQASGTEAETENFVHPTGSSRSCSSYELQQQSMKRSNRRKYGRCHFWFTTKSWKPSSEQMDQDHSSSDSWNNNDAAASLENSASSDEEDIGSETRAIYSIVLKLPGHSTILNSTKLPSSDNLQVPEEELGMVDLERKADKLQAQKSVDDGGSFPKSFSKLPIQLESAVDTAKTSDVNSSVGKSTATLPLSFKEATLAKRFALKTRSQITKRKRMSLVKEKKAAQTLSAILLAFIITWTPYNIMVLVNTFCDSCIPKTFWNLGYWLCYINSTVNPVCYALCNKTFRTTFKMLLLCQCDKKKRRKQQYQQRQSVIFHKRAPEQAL

HEK293/Human 5-HT3A = biological target: T2, HEK293/Human 5-HT3A (Homo sapiens, UniProt P46098); assay: Ca2+ flux (FLIPR) 5-HT3A antagonist assay; type: cell-based
T2 construct: expressed in transfected cells; host or cells: HEK293 (made by Bristol-Myers Squibb)
T2 sequence (P46098 24-478): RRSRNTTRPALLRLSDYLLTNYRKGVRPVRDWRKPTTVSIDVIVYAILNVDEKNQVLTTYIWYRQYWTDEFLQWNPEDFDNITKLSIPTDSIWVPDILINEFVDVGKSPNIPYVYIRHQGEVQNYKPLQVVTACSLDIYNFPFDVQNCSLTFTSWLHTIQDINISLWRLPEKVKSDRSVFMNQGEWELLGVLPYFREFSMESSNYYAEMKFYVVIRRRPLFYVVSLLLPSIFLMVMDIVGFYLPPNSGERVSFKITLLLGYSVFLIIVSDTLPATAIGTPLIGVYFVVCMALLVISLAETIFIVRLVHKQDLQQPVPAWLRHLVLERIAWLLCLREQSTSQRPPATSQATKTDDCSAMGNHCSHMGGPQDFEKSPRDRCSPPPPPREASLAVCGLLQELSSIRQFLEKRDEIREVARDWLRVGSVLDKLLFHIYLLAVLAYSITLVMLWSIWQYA
Method: Functional activity was examined using Ca^2+-sensitive, dye-based, microfluorometric assays read on the FLIPR Tetra plate reader platform (Molecular Devices, CA, USA). Cells were plated in 384-well black, clear-bottomed Greiner poly-D-lysine coated plates at a density of ~25 K cells/well and incubated at 29°C for 48 h. Prior to assay, media contents were removed and cells incubated in assay buffer containing 5μM final Fluo-4 dye for 90 min. For nAChR assays, the dye-loading buffer was HBSS (#14175 Life Technologies) supplemented with 20 mM HEPES, 0.5 mM CaCl2, 1 mM MgCl2 and 10 μM atropine (final concentration). Test compounds were solubilized in DMSO and serially diluted in NUNC 384-well plates prior to addition of assay buffer (5.3 mM KCl + 140 mM NaCl + 20 mM Hepes + 25 mM CaCl2 + 1 mM MgCl2 + 10 μM atropine final concentration). Compounds diluted in assay buffer were added to the assay plate by the FLIPR and read for approximately 2 min. […] For 5-HT3A antagonist studies, the dye loading and compound diluent buffer was HBSS (#14025 Life Technologies) supplemented with 20 mM HEPES (final concentration) and the concentration of 5-HT used in the assay was 2 μM. Offline transformation of concentration response data was done using a 4 parameter logistic fit using a Bristol-Myers Squibb proprietary informatics software suite.

[2] = system: neonatal PCP treated rats; assay: Rat neonatal PCP mismatch negativity
Source text: Adult male rats treated neonatally with PCP were implanted with epidural screw electrodes at the following co-ordinates under isoflurane anesthesia: 6 mm rostral and 1 mm off midline to the left from bregma; 5.5 mm rostral to interaural line and 1 mm off to the right from midline. Following recovery EEG recordings were collected from conscious rats housed in individual sound attenuated chambers (Med Associates, St Albans, VT) with the recording electrodes tethered through a low torque commutator system (Plastics One Inc, Roannoke, VA) to a differential amplifier (gain x1000; Warner Instruments, Hamden, CT). […] Baseline EEG was first recorded using Spike v5.19 or later software (CED, Cambridge, UK) to ensure electrical connectivity and an acceptable EEG signal. A simultaneous video was used to assess the general state of the animals during the recordings. […] Tones (70 dB) were delivered through a speaker mounted in the top center of the housing chamber and presented at 450 ms intervals. In each experimental session 700 standard and 100 deviant tones were presented. Data were analyzed using Signal v4.09 software (CED, Cambridge, UK). Artifact free trials were visually identified, corrected for baseline shift using the first 100 ms of the pre-stimulus baseline, 30 Hz low-pass filtered using a second order Butterworth digital filter and averaged to give evoked potential for each subject.

SMILES: c1cn(-c2cc(NC3=NC[C@@]4(CN5CCC4CC5)O3)ncn2)cn1 [BMS-933043, (2R)-N-(6-(1H-imidazol-1-yl)-4-pyrimidinyl)-4'H-spiro[4-azabicyclo[2.2.2]octane-2,5'-[1,3]oxazol]-2'-amine]
- Kp at 30 min ([1]; 3 mg/kg, Rat MMN, 3 mg/kg sc, 30 min): 0.19
- Kp at 30 min ([1]; 3 mg/kg, Rat N40 Gating, 3 mg/kg sc, 30 min): 0.27
- concentration at 150 min ([1]; oral, 0.3 mg/kg, Rat MK-801 Set Shift (0.3-3 mg/kg study), 0.30 mg/kg po, read-out: Plasma Mean ± SD): 5.7 ± 0.9 nM
- concentration at 150 min ([1]; oral, 1 mg/kg, Rat MK-801 Set Shift (0.3-3 mg/kg study), 1 mg/kg po, read-out: Plasma Mean ± SD): 50 ± 7.4 nM
- concentration at 150 min ([1]; oral, 3 mg/kg, Rat MK-801 Set Shift (0.3-3 mg/kg study), 3 mg/kg po, read-out: Plasma Mean ± SD): 410 ± 97 nM
- concentration at 150 min ([1]; oral, 3 mg/kg, Rat MK-801 Set Shift (3-30 mg/kg study), 3 mg/kg po, read-out: Plasma Mean ± SD): 452 ± 60 nM
- concentration at 150 min ([1]; oral, 10 mg/kg, Rat MK-801 Set Shift (3-30 mg/kg study), 10 mg/kg po, read-out: Plasma Mean ± SD): 1860 nM
- concentration at 150 min ([1]; oral, 30 mg/kg, Rat MK-801 Set Shift (3-30 mg/kg study), 30 mg/kg po, read-out: Plasma Mean ± SD): 7260 nM
- concentration at 150 min ([1]; po, 1 mg/kg, Rat Neonatal PCP ID/ED, 1 mg/kg po, read-out: Plasma Mean ± SD): 21 ± 9 nM
- concentration at 150 min ([1]; po, 3 mg/kg, Rat Neonatal PCP ID/ED, 3 mg/kg po, read-out: Plasma Mean ± SD): 225 ± 50 nM
- concentration at 30 min ([1]; 0.01 mg/kg, Rat MMN, 0.01 mg/kg sc, 30 min, read-out: Plasma Mean ± SD): 2.4 ± 0.1 nM
- concentration at 30 min ([1]; 0.03 mg/kg, Rat MMN, 0.03 mg/kg sc, 30 min, read-out: Plasma Mean ± SD): 23 ± 29 nM
- concentration at 30 min ([1]; 0.1 mg/kg, Rat MMN, 0.10 mg/kg sc, 30 min, read-out: Plasma Mean ± SD): 24 ± 0.6 nM
- concentration at 30 min ([1]; 0.3 mg/kg, Rat MMN, 0.30 mg/kg sc, 30 min, read-out: Plasma Mean ± SD): 75 ± 6 nM
- concentration at 30 min ([1]; 0.3 mg/kg, Rat N40 Gating, 0.30 mg/kg sc, 30 min, read-out: Plasma Mean ± SD): 81 ± 8 nM
- concentration at 30 min ([1]; 0.56 mg/kg, Rat N40 Gating, 0.56 mg/kg sc, 30 min, read-out: Plasma Mean ± SD): 146 ± 12 nM
- concentration at 30 min ([1]; 1 mg/kg, Rat MMN, 1 mg/kg sc, 30 min, read-out: Plasma Mean ± SD): 398 ± 139 nM
- concentration at 30 min ([1]; 1 mg/kg, Rat N40 Gating, 1 mg/kg sc, 30 min, read-out: Plasma Mean ± SD): 295 ± 27 nM
- concentration at 30 min ([1]; 3 mg/kg, Rat MMN, 3 mg/kg sc, 30 min, read-out: Plasma Mean ± SD): 1970 nM
- concentration at 30 min ([1]; 3 mg/kg, Rat N40 Gating, 3 mg/kg sc, 30 min, read-out: Plasma Mean ± SD): 1360 nM
- concentration at 30 min ([1]; subcutaneous, 10 mg/kg, N40 gating, read-out: average plasma concentration at dose with loss of efficacy): 3310 nM
- Ki (Rat Brain α7 nAChR; Rat Brain α7 nAChR Ki (individual)): 0.00267 µM and 0.00299 µM and 0.00308 µM and 0.00374 µM and 0.0032 µM and 0.00382 µM
- Ki (Rat Brain α7 nAChR; Rat Brain α7 nAChR Mean ± SD Ki): 0.003 µM
- Ki (Rat Brain α7 nAChR; read-out: Rat Brain α7 nAChR Mean ± SD Ki): 0.0033 µM
- IC50 (rat α3β4 nAChR): > 30 µM
- IC50 (Adrenergic α1B): > 30 µM
- inhibition at 10 µM (Muscarinic M3): 18%
- IC50 (HEK293/Human 5-HT3A; HEK293/Human 5-HT3A Mean ± SD IC50, Ca2+ flux (FLIPR), antagonism of 2 μM 5-HT): 8.07 µM
- IC50 (HEK293/Human 5-HT3A; Human 5-HT3A IC50 values (individual), FLIPR, individual determinations): 10.5 µM and 7.2 µM and 8.02 µM and 6.88 µM and 7.28 µM and 4.89 µM and 12.4 µM and 5.32 µM and 8.67 µM and 9.42 µM
- deviance detection (MMN) ([2]; 0.3 mg/kg sc): just failing to achieve statistical significance
- AUC (150-200 ms) of difference wave, Mean ([2]; Study 1, 0.01 mg/kg sc): -6.608e-005
- AUC (150-200 ms) of difference wave, Mean ([2]; Study 1, 0.1 mg/kg sc): -0.0001188
- AUC (150-200 ms) of difference wave, Mean ([2]; Study 2, 0.03 mg/kg sc): -0.0002362
- AUC (150-200 ms) of difference wave, Mean ([2]; Study 2, 0.1 mg/kg sc (so in the source)): -0.0001715
- AUC (150-200 ms) of difference wave, Mean ([2]; Study 3, 1 mg/kg sc): -0.000159
- AUC (150-200 ms) of difference wave, Mean ([2]; Study 3, 3 mg/kg sc): -0.0001341
- deviance detection (MMN) ([2]; doses of 0.03, 0.1, 1 and 3 mg/kg sc): significant deviance detection from a hypothetical zero
- Active dose range, Neonatal PCP MMN ([2]; sc): 0.03–3.0 (sc) mg/kg
